Inhibition data for 36 molecules are collected here from US7906522B2, “2-aminoquinazoline derivatives” (Kyowa Hakko Kirin Co., Ltd, priority 2005, dated 2011).

T1 sequence (Q16539 whole entry): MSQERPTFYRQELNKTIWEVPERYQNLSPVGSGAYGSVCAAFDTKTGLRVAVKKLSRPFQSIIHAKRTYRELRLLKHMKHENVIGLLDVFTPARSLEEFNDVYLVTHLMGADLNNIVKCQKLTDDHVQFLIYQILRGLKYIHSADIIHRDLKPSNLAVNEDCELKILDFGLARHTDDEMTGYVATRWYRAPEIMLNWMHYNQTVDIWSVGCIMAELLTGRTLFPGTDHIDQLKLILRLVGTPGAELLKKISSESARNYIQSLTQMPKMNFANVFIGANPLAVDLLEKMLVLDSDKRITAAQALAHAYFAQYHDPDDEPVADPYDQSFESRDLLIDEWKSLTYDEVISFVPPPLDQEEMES

The assay has as its target T1, Activated human p38α (Homo sapiens, UniProt Q16539).
T1 construct: purchased Upstate Biotechnology Inc. 14-251
Briefly: p38MAP kinase inhibition test. It is filed as biochemical. To be noted: at a concentration of 1 μmol/L; substrate myelin basic protein, ATP 20 μmol/L, [γ-32P]ATP; read-out: enzyme inhibitory activity. The procedure:
p38MAP Kinase Inhibition Test
Activated human p38α was purchased from Upstate Biotechnology Inc. (Catalog No. 14-251). P38MAP kinase inhibitory activity was measured by the procedure described below with reference to the method by Whitmarsh A. J. and Davis R. J. [Methods in Enzymology (Method. Enzymol.), vol. 332, p. 319-336 (2001)]. As the substrate to be phosphorylated, a myelin basic protein (Catalog No. 133-13493, Wako Pure Chemical Industries, Ltd.) (20 μg/assay) was used. The reaction was carried out in a solution containing 3-[N-Morpholino]propanesulfonic acid (MOPS) (20 mmol/L, pH 7.2), β-glycerophosphoric acid (Sigma Corp.) (25 mmol/L), ethylenebis(oxyethylenenitrilo)tetraacetic acid (EGTA) (1 mmol/L), […] (Sigma-Aldrich Corp.) (1 mmol/L), dithiothreitol (DTT, Wako Pure Chemical Industries, Ltd.) (1 mmol/L), adenosine 5′-triphosphate (ATP, Sigma Corp.) (20 μmol/L), and MgCl2 (18.75 mmol/L) (total 40 μL/assay). The reaction was started by adding human p38α and [γ-^32P]ATP (1 μCi/assay), and incubation was performed at 30° C. for 15 minutes. The reaction was terminated by adding 4.5% v/v phosphoric acid (10 μL/well). Then, 45 μL of the reaction mixture was adsorbed onto phosphocellulose paper (p81 paper, Code No. 3698023, Whatman International, Maidstone, UK). The phosphocellulose paper was washed with 0.75% v/v phosphoric acid. Then, the radioactivity of the phosphorylated myelin basic protein ([^32P]) remaining on the phosphocellulose paper was measured with a scintillation counter (TRI-CARB2700TR, PerkinElmer, Boston, Mass., USA) using program No. 27 (data mode: cpm, measurement time: 1 min, Background substract: none, energy range measured: LL 0.0-UL 2000) or a scintillation counter (LS6500, BeckmanCoulter, Fullerton, Calif., USA) using program No. 17 (data mode: cpm, measurement time: 1 min, Background substract: none, energy range measured: high). The test compound was dissolved in DMSO before addition.
In the case of `COc1cc2nc(NC(C)C)ncc2cc1-c1ccc(F)cc1F` [Compound 3, 6-(2,4-Difluorophenyl)-2-isopropylamino-7-methoxyquinazoline], the inhibition at 1 µM is at least 50%.
For `COc1cc2nc(NC(C)C)ncc2cc1-c1ccccc1Cl` [Compound 4, 6-(2-Chlorophenyl)-2-isopropylamino-7-methoxyquinazoline], the inhibition at 1 µM is at least 50%.
Take `COc1cc2nc(N[C@H]3CC[C@H](N)CC3)ncc2cc1-c1ccccc1Cl` [Compound 5, 2-(trans-4-Aminocyclohexylamino)-6-(2-chlorophenyl)-7-methoxyquinazoline]: the inhibition at 1 µM is at least 50%.
On to `COc1cc2nc(NC3CCCC3)ncc2cc1-c1ccccc1Cl` [Compound 6, 6-(2-Chlorophenyl)-2-(cyclopentylamino)-7-methoxyquinazoline], for which the inhibition at 1 µM was at least 50%.
Regarding `COc1cc2nc(N[C@H](C)C(C)(C)O)ncc2cc1-c1ccccc1Cl` [Compound 7, (R)-6-(2-Chlorophenyl)-2-(2-hydroxy-1,2-dimethylpropylamino)-7-methoxyquinazoline], the inhibition at 1 µM is at least 50%.
As for `COc1cc2nc(N[C@H](C)c3ccccc3)ncc2cc1-c1ccccc1Cl` [Compound 8, (R)-6-(2-Chlorophenyl)-7-methoxy-2-[(1-phenylethyl)amino]quinazoline], the inhibition at 1 µM is at least 50%.
As for `COc1cc2nc(N[C@@H](C)c3ccccc3)ncc2cc1-c1ccccc1Cl` [Compound 9, (S)-6-(2-Chlorophenyl)-7-methoxy-2-[(1-phenylethyl)amino]quinazoline], the inhibition at 1 µM was at least 50%.
For the molecule `COc1cc2nc(N[C@H]3CC[C@H](O)CC3)ncc2cc1-c1ccccc1Cl` [Compound 10, 6-(2-Chlorophenyl)-2-(trans-4-hydroxycyclohexylamino)-7-methoxyquinazoline], the inhibition at 1 µM is at least 50%.
Turning to `COc1cc2nc(NC3CCOCC3)ncc2cc1-c1ccccc1Cl` [Compound 11, 6-(2-Chlorophenyl)-7-methoxy-2-(4-tetrahydropyranylamino)quinazoline], the inhibition at 1 µM was at least 50%.
As for `COc1cc2nc(NC3CCN(S(C)(=O)=O)CC3)ncc2cc1-c1ccccc1Cl` [Compound 12, 6-(2-Chlorophenyl)-2-[1-(methylsulfonyl)piperidin-4-ylamino]-7-methoxyquinazoline], the inhibition at 1 µM was at least 50%.
The figure for `COc1cc2nc(NC3CCN(S(=O)(=O)C(F)(F)F)CC3)ncc2cc1-c1ccccc1Cl` [Compound 13, 6-(2-Chlorophenyl)-7-methoxy-2-[1-(trifluoromethylsulfonyl)piperidin-4-ylamino]quinazoline] is at least 50%; for `COc1cc2nc(NC3CCN(S(=O)(=O)CC(F)(F)F)CC3)ncc2cc1-c1ccccc1Cl` [Compound 14, 6-(2-Chlorophenyl)-7-methoxy-2-[1-(2,2,2-trifluoroethylsulfonyl)piperidin-4-ylamino]quinazoline] it is at least 50%.
On to `COc1cc2nc(NC3CCN(C(N)=O)CC3)ncc2cc1-c1ccccc1Cl` [Compound 15, 2-(1-Carbamoylpiperidin-4-ylamino)-6-(2-chlorophenyl)-7-methoxyquinazoline], for which the inhibition at 1 µM was at least 50%.
Regarding `COc1cc2nc(Nc3c(F)cccc3F)ncc2cc1-c1ccccc1Cl` [Compound 16, 6-(2-Chlorophenyl)-2-(2,6-difluoroanilino)-7-methoxyquinazoline], the inhibition at 1 µM is at least 50%.
Turning to `COc1cc2nc(Nc3c(Cl)cccc3Cl)ncc2cc1-c1ccccc1Cl` [Compound 17, 6-(2-Chlorophenyl)-2-(2,6-dichloroanilino)-7-methoxyquinazoline], the inhibition at 1 µM was at least 50%.
For `CC(C)Nc1ncc2cc(-c3ccccc3Cl)c(O)cc2n1` [Compound 19, 6-(2-Chlorophenyl)-7-hydroxy-2-isopropylaminoquinazoline], the inhibition at 1 µM is at least 50%.
In the case of `CC(C)Nc1ncc2cc(-c3ccccc3Cl)c(OC(=O)c3ccccc3)cc2n1` [Compound 20, 7-Benzoyloxy-6-(2-chlorophenyl)-2-isopropylaminoquinazoline], the inhibition at 1 µM was at least 50%.
For the molecule `CC(C)Nc1ncc2cc(-c3ccccc3Cl)c(OCC#N)cc2n1` [Compound 21, 6-(2-Chlorophenyl)-7-cyanomethyloxy-2-isopropylaminoquinazoline], the inhibition at 1 µM was at least 50%.
Turning to `CC(=O)OCCOc1cc2nc(NC(C)C)ncc2cc1-c1ccccc1Cl` [Compound 22, 7-(2-Acetyloxyethyloxy)-6-(2-chlorophenyl)-2-isopropylaminoquinazoline], the inhibition at 1 µM was at least 50%.
For the molecule `CC(C)Nc1ncc2cc(-c3ccccc3Cl)c(OCCO)cc2n1` [Compound 23, 6-(2-Chlorophenyl)-7-(2-hydroxyethyloxy)-2-isopropylaminoquinazoline], the inhibition at 1 µM is at least 50%.
Consider `CC(C)Nc1ncc2cc(-c3ccccc3Cl)c(OCCCO)cc2n1` [Compound 24, 6-(2-Chlorophenyl)-7-(3-hydroxypropyloxy)-2-isopropylaminoquinazoline], for which the inhibition at 1 µM was at least 50%.
Turning to `CC(C)Nc1ncc2cc(-c3ccccc3Cl)c(OCCCCO)cc2n1` [Compound 25, 6-(2-Chlorophenyl)-7-(4-hydroxybutyloxy)-2-isopropylaminoquinazoline], the inhibition at 1 µM is at least 50%.
Regarding `COCOc1cc2nc(NC(C)C)ncc2cc1-c1ccccc1Cl` [Compound 26, 6-(2-Chlorophenyl)-2-isopropylamino-7-methoxymethyloxyquinazoline], the inhibition at 1 µM was at least 50%.
On to `CC(C)Nc1ncc2cc(-c3ccccc3Cl)c(OCc3ccccc3)cc2n1` [Compound 27, 7-Benzyloxy-6-(2-chlorophenyl)-2-isopropylaminoquinazoline], for which the inhibition at 1 µM is at least 50%.
Regarding `CC(C)Nc1ncc2cc(-c3ccccc3Cl)c(OCc3ccc(C(=O)O)cc3)cc2n1` [Compound 28, 7-(4-Carboxyphenylmethyloxy)-6-(2-chlorophenyl)-2-isopropylaminoquinazoline], the inhibition at 1 µM was at least 50%.
Take `CC(C)Nc1ncc2cc(-c3ccccc3Cl)c(OCc3cccc(C(=O)O)c3)cc2n1` [Compound 29, 7-(3-Carboxyphenylmethyloxy)-6-(2-chlorophenyl)-2-isopropylaminoquinazoline]: the inhibition at 1 µM was at least 50%.
To `CC(C)Nc1ncc2cc(-c3ccccc3Cl)c(OCCC(=O)O)cc2n1` [Compound 30, 7-(2-Carboxyethyloxy)-6-(2-chlorophenyl)-2-isopropylaminoquinazoline] belongs at least 50%.
Turning to `CC(C)Nc1ncc2cc(-c3ccccc3Cl)c(OCCCC(=O)O)cc2n1` [Compound 31, 7-(3-Carboxypropyloxy)-6-(2-chlorophenyl)-2-isopropylaminoquinazoline], the inhibition at 1 µM was at least 50%.
Regarding `CCOC(=O)COc1cc2nc(NC(C)C)ncc2cc1-c1ccccc1Cl` [Compound 32, 6-(2-Chlorophenyl)-7-(ethoxycarbonylmethyloxy)-2-isopropylaminoquinazoline], the inhibition at 1 µM was at least 50%.
`CC(C)Nc1ncc2cc(-c3ccccc3Cl)c(OCC(=O)O)cc2n1` [Compound 33, 7-(Carboxymethyloxy)-6-(2-chlorophenyl)-2-isopropylaminoquinazoline]: the inhibition at 1 µM is at least 50%.
With `CC(C)Nc1ncc2cc(-c3ccccc3Cl)c(OCC(C)(C)O)cc2n1` [Compound 34, 6-(2-Chlorophenyl)-7-(2-hydroxy-2-methylpropyloxy)-2-isopropylaminoquinazoline], the inhibition at 1 µM was at least 50%.
Regarding `CC(C)Nc1ncc2cc(-c3ccccc3Cl)c(OCC(N)=O)cc2n1` [Compound 35, 7-(Carbamoylmethyloxy)-6-(2-chlorophenyl)-2-isopropylaminoquinazoline], the inhibition at 1 µM is at least 50%.
As for `CC(C)Nc1ncc2cc(-c3ccccc3Cl)c(OCC(=O)N(C)C)cc2n1` [Compound 37, 6-(2-Chlorophenyl)-7-(N,N-dimethylcarbamoylmethyloxy)-2-isopropylaminoquinazoline], the inhibition at 1 µM was at least 50%.
`CC(C)Nc1ncc2cc(-c3ccccc3Cl)c(OCC(=O)N3CCCCC3)cc2n1` [Compound 38, 6-(2-Chlorophenyl)-2-isopropylamino-7-[(piperidinocarbonyl)methyloxy]quinazoline]: the inhibition at 1 µM was at least 50%.
The figure for `CC(C)Nc1ncc2cc(-c3ccccc3Cl)c(OCC(=O)N3CCOCC3)cc2n1` [Compound 39, 6-(2-Chlorophenyl)-2-isopropylamino-7-[(morpholinocarbonyl)methyloxy]quinazoline] is at least 50%; for `CC(C)Nc1ncc2cc(-c3ccccc3Cl)c(OCC(=O)N3CCN(C)CC3)cc2n1` [Compound 40, 6-(2-Chlorophenyl)-2-isopropylamino-7-[(4-methylpiperazin-1-ylcarbonyl)methyloxy]quinazoline] it is at least 50%.
